How the values were obtained:
Set-up in all cases: scale not given: the % may be the effect or the level left
[1] = biological target: T1, Casein kinase I isoform alpha-like (Homo sapiens) (UniProt Q8N752); assay: Inhibition of human CK1a1L assessed as enzyme activity at 1 uM using KRRRAL[pS]VASLPGL as substrate preincubated for 20 mins followed by [gamma-33P]-ATP addition and measured after 120 mins by radiometric Hot-SpotSM Kinase assay relative to control
T1 sequence (whole entry): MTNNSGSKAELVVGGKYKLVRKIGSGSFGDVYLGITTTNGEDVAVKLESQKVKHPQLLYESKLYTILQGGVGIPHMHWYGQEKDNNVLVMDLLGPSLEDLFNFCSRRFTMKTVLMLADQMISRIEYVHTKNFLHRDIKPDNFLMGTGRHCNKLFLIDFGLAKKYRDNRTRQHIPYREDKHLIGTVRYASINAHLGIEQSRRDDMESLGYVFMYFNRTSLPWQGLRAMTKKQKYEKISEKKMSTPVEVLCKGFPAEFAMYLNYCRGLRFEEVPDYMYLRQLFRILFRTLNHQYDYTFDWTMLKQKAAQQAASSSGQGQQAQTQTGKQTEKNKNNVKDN

[2] = biological target: Myosin light chain kinase 2, skeletal/cardiac muscle (Homo sapiens) (UniProt Q9H1R3); assay: Inhibition of human MLCK2 assessed as enzyme activity at 1 uM using KKLNRTLSFAEPG as substrate preincubated for 20 mins followed by [gamma-33P]-ATP addition and measured after 120 mins by radiometric Hot-SpotSM Kinase assay relative to control
Chain of Myosin light chain kinase 2, skeletal/cardiac muscle (Homo sapiens) (Q9H1R3 whole entry): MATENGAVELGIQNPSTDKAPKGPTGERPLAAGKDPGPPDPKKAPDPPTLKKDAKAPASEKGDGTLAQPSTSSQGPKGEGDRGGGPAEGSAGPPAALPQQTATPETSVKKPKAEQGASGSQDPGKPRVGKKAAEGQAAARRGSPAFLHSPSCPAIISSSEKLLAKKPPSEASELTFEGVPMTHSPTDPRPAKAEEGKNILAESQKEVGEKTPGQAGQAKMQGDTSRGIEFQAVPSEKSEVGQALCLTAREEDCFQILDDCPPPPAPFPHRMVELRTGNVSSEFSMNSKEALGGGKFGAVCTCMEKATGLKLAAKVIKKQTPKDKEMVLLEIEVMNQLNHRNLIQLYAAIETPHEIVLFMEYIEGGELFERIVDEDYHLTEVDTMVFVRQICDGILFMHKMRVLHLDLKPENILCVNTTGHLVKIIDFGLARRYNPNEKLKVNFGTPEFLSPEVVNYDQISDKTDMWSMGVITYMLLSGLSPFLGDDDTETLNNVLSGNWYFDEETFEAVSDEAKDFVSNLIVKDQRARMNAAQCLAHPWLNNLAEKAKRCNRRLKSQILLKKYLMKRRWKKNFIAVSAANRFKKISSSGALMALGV

[3] = biological target: T2, Serine/threonine-protein kinase Nek9 (Homo sapiens) (UniProt Q8TD19); assay: Inhibition of human NEK9 assessed as enzyme activity at 1 uM using myelin basic protein as substrate preincubated for 20 mins followed by [gamma-33P]-ATP addition and measured after 120 mins by radiometric Hot-SpotSM Kinase assay relative to control
T2 sequence (whole entry): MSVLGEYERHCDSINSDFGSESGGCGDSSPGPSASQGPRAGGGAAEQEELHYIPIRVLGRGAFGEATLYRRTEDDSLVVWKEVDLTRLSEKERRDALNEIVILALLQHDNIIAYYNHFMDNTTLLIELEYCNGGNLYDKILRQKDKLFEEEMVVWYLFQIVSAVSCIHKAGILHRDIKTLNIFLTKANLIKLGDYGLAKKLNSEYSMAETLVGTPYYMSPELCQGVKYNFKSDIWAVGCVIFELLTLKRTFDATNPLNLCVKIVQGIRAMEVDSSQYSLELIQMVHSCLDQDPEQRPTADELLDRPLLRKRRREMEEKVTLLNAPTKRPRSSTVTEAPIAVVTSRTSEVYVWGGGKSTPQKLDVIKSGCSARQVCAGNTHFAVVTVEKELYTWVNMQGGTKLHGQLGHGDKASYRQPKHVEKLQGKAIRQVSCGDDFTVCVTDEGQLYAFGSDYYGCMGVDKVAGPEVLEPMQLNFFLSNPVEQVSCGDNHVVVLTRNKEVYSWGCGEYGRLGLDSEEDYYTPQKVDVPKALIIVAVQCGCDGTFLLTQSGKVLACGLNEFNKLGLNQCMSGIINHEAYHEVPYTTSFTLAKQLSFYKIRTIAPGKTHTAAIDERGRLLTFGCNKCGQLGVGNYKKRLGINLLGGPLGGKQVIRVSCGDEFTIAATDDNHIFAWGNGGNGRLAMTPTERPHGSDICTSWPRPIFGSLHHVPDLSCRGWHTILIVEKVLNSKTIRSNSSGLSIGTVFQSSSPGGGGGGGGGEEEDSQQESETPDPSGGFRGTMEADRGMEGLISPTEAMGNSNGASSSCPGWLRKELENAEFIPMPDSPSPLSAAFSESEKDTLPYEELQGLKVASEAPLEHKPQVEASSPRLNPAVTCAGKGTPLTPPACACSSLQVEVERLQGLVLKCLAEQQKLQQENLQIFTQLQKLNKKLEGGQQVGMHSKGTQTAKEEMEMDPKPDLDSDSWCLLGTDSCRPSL

[4] = biological target: Serine/threonine-protein kinase NIM1 (Homo sapiens) (UniProt Q8IY84); assay: Inhibition of human NIM1 assessed as enzyme activity at 1 uM using KKKVSRSGLYRSPSMPENLNRPR as substrate preincubated for 20 mins followed by [gamma-33P]-ATP addition and measured after 120 mins by radiometric Hot-SpotSM Kinase assay relative to control
Chain of Serine/threonine-protein kinase NIM1 (Homo sapiens) (Q8IY84 whole entry): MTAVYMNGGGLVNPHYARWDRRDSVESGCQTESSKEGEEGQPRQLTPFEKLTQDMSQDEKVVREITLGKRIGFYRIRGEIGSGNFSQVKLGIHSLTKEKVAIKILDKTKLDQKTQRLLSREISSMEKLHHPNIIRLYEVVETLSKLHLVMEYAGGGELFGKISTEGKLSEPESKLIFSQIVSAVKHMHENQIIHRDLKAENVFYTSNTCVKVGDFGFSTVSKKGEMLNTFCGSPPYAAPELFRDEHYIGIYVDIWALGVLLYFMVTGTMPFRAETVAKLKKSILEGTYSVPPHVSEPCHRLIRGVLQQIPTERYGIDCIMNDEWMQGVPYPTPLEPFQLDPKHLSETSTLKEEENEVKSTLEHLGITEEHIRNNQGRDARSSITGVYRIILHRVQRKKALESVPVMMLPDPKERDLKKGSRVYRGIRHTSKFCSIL

[5] = biological target: T3, Dual serine/threonine and tyrosine protein kinase (Homo sapiens) (UniProt Q6XUX3); assay: Inhibition of human RIPK5 assessed as enzyme activity at 1 uM using myelin basic protein as substrate preincubated for 20 mins followed by [gamma-33P]-ATP addition and measured after 120 mins by radiometric Hot-SpotSM Kinase assay relative to control
T3 sequence (whole entry): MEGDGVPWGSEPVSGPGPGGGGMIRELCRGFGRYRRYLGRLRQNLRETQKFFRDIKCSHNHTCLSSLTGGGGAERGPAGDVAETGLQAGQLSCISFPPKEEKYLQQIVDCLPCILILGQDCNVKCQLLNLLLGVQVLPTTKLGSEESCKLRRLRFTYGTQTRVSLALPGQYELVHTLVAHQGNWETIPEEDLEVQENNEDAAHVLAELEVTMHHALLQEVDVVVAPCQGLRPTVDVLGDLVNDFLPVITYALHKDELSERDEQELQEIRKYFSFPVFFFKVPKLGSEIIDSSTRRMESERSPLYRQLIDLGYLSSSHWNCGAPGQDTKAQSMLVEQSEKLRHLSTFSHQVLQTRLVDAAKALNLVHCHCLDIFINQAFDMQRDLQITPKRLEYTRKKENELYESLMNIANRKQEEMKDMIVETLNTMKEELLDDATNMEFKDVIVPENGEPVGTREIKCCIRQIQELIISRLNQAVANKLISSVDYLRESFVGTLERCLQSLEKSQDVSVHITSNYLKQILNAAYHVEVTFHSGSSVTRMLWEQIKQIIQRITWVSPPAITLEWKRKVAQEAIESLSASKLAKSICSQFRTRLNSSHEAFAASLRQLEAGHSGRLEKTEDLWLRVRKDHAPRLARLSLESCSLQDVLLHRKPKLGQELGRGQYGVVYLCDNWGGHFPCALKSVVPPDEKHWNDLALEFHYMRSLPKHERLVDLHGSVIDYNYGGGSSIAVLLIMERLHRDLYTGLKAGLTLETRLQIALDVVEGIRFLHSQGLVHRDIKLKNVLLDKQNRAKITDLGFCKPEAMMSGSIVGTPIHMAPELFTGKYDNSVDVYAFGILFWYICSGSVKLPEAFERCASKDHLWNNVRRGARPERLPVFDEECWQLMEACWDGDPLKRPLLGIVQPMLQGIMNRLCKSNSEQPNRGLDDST

[6] = biological target: Serine/threonine-protein kinase 25 (Homo sapiens) (UniProt O00506); assay: Inhibition of human STK25 assessed as enzyme activity at 1 uM using myelin basic protein as substrate preincubated for 20 mins followed by [gamma-33P]-ATP addition and measured after 120 mins by radiometric Hot-SpotSM Kinase assay relative to control
Chain of Serine/threonine-protein kinase 25 (Homo sapiens) (O00506 whole entry, looked up): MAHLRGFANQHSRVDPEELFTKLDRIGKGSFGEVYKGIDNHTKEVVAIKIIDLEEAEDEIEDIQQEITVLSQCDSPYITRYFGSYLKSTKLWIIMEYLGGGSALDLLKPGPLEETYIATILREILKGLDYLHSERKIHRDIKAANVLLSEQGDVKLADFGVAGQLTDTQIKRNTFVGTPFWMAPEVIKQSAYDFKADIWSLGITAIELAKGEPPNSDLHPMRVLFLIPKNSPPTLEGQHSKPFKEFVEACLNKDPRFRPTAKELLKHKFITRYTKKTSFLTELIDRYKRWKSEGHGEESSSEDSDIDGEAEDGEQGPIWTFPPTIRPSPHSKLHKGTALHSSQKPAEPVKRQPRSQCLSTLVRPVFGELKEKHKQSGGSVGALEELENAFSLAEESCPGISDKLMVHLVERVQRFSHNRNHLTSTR

SMILES	Activity [1]	Activity [2]	Activity [3]	Activity [4]	Activity [5]	Activity [6]
C[C@H](Nc1ncnc2nc[nH]c12)c1cc2cccc(Cl)c2c(=O)n1-c1ccccc1	99.5%	100%	94.8%	94%	96%	97%
CC[C@H](Nc1ncnc2[nH]cnc12)c1nc2cccc(F)c2c(=O)n1-c1ccccc1	101%	98.7%	95.1%	93.6%	90%	102%
CC(C)Oc1ccc(-c2nn([C@@H](C)c3oc4ccc(F)cc4c(=O)c3-c3cccc(F)c3)c3ncnc(N)c23)cc1F [UMBRALISIB]	103%	101%	91.6%	93%	90.7%	103%

Source: ChEMBL document CHEMBL5715954, “Silencing c-Myc translation as a therapeutic strategy through targeting PI3Kδ and CK1ε in hematological malignancies” (Blood, 2017)
